Data reported in US11033545B2, “Negative allosteric modulators of MGLUR5 for use in the treatment of mature brain damages” (Sinntaxis AB, priority 2016, dated 2021).

Columns and labels:
Assay type in all cases: in vivo
male Sprague Dawley rats [1] = test: Infarct size after photothrombotic stroke in the rat; conditions: 5 mg/kg i.p., FIG. 1B
Experimental: Experimental stroke. The animals were anesthetized by isoflurane (approximately 2% in 02 under spontaneous ventilation) and placed into stereotaxic frame. Temperature was monitored during surgery using a rectal temperature probe and animals were kept at 37.0-37.5±0.2° C. by means of a heating pad with feedback control. A sagittal skin incision was made and subcutaneous connective tissue was removed and the skull was dried. Thereafter, the photosensitizer dye Rose Bengal (0.5 mL at 10 mg/mL) was infused in the tail vein. […] The functional deficit was assessed 2 h after the onset of the stroke using the limb placement test and only the animals having a score 0, for both fore- and hindlimb contralateral to the brain damaged hemisphere were used for the study. […]
(§1) Infarct measurements. […] Twelve slices 1 mm apart, were scanned, and the non-lesioned area of the infarcted hemisphere and the non-lesioned contralateral hemisphere were outlined and measured using the ImageJ software (National Institute of Health, USA). Infarct volume (mm^3) was determined by subtracting the area of the non-lesioned ipsilateral hemisphere from that of the intact contralateral hemisphere, and calculated by volumetric integration for each animal.

male C57/BL6 mice [2] = test: Infarct size after photothrombotic stroke in the mouse; conditions: 5 mg/kg i.p. for 5 days, FIG. 2B
Experimental: Tissue collection. The animals were deeply anesthetized (isoflurane) and perfusion-fixed with 4% paraformaldehyde (PFA) solution. Brains were collected and immersed in 4% PFA solution for 4 h, then transferred into a 25% sucrose phosphate buffer solution (0.1 M NaH2PO4, 0.1 M Na2HPO4) and stored at 4° C. Brains were then cut in 30 μm slices using a microtome and one slice was kept each 1 mm for infarct size measurement. The others were kept for immunohistochemistry and immunofluorescence. All the slices were stored in anti-freeze solution (30% ethylene glycol, 30% glycerol, 0.01 M NaH2PO4, 0.03 M Na2HPO4) at −20° C.
Immunohistochemistry. Free-floating brain slices were rinsed three times in PBS (phosphate buffer saline) and quenched in 3% H2O2 and 10% MetOH for 15 minutes. […]
as §1, with “animal. […]” for “animal.”
The animals were perfused and immunostained as in Example 1, and the infarct size was assessed as in Example 1.

male C57/BL6 mice [3] = test: Paw placement test after photothrombotic stroke in the mouse
male Sprague Dawley rats [4] = test: Paw placement test after photothrombotic stroke in the rat; conditions: rat
Experimental: Animals. All experiments were carried out with the approval of the Malmö-Lund animal review board and according to the ARRIVE guidelines. Animals were housed under reverse light conditions, with the testing performed during the dark period when the rats are active. The experiments were carried out on male Sprague Dawley rats (11 weeks of age, Charles River, Scanbur A/S Karlslunde, Denmark). The studies were subjected to randomization and carried out in a blinded fashion to the investigators who performed the surgeries and behavioral assessment.
Administration of compound. The compound was injected as a bolus dose of 1 ml/kg into the lower quadrant of the abdomen.
Experimental stroke. The animals were anesthetized by isoflurane (approximately 2% in 02 under spontaneous ventilation) and placed into stereotaxic frame. Temperature was monitored during surgery using a rectal temperature probe and animals were kept at 37.0-37.5±0.2° C. by means of a heating pad with feedback control. A sagittal skin incision was made and subcutaneous connective tissue was removed and the skull was dried. Thereafter, the photosensitizer dye Rose Bengal (0.5 mL at 10 mg/mL) was infused in the tail vein. Two minutes after injection, the skull was illuminated with cold light (Schott, KL 1500 LCD) on an area of 8 to 4.5 mm for 15 min (from +4 to −4 mm antero-posterior and from 0.5 to 5 mm on the left from bregma). Thereafter the tail and the scalp incisions were sutured and the rats transferred to their home cage. The functional deficit was assessed 2 h after the onset of the stroke using the limb placement test and only the animals having a score 0, for both fore- and hindlimb contralateral to the brain damaged hemisphere were used for the study.
Test of neurological function. The paw placement test. The cortical damage inflicted by the phothrombosis, causes a deficit due to neuronal loss in the sensori-motor area and depression of functions in neuronal networks in the vicinity of the lesion. […] This test provides information on the tactile/proprioceptive response to limb stimulation. Animals were placed with all 4 paws on the table top, and the paws to be tested along the edge. The rat was moved over the edge so the paws to be tested loose contact with the table surface. The ability of the animals to place the limb back onto the table surface when the rat was moved towards the edge was evaluated. Importantly, the head was held at 45° angle, so that visual and whisker/snout stimulation was prevented. A prompt placement of the limb onto the table was scored as 1. Incomplete placing of the limb was scored as 0.5, and complete extension of the limb and paw was scored as 0. In order to obtain groups with a similar functional deficit prior to treatment of the animals with drugs or vehicle, selective sorting was performed on day 2 after experimental stroke, a time point of recovery when the infarct development had subsided.
Administration of the compounds. The compounds were administrated orally (p.o.) by catheters placed in the stomach. The amount of solutions were 0.2 ml/rat and 0.1 ml/mice.
Induction of stroke was as made as in Example 1 for rats and as in Example 2 in mice. Assessment of neurological function was performed as in Example 1 for rats and as in Example 2 for mice. The animals were perfused and immunostained as in Example 1, and the infarct size was assessed as in Example 1.
Induction of stroke, assessment of neurological function, perfusion of animals, immunostaining and assessment of infarct size were made as in Example 1.

[5] = time course of recovery of function, treatment starting 2 days after stroke

## Cc1nc(C#Cc2cccnc2)cs1 [SIN007, 3-[(2methyl-1,3-thiazol-4-yl)ethynyl]pyridine]
Male Sprague Dawley rats [1]
  infarct size compared to vehicle: no difference in infarct size
Male Sprague Dawley rats [1]; animals of FIG. 1A
  infarct size: 19.5±4.6 mm^3
Male C57/BL6 mice [2]
  infarct size: 8.9±0.9 mm^3
  mean infarct size compared to vehicle: the mean infarct size was the same in the two groups
Male C57/BL6 mice [3]; 1 mg/kg i.p. daily for 3 days, standard housing, FIG. 2F
  recovery of function: moderately enhances recovery of function
Male C57/BL6 mice [3]; 1 mg/kg i.p. for 3 days plus housing in enriched environment, FIG. 2F
  recovery of function, combined with enriched environment: significantly improves recovery
Male C57/BL6 mice [3]; 5 mg/kg i.p. daily for 5 days starting 2 days after stroke, vs vehicle, p<0.01, FIG. 2A
  functional recovery (paw placement): strong recovery enhancing effect
Male C57/BL6 mice [3]; SIN007 5 mg/kg i.p. alone, vs vehicle, FIG. 2D
  paw placement score after 5 days of treatment: recovered paw function
Male Sprague Dawley rats [4]; 5 mg/kg i.p. daily starting 2 days after stroke, assessed at 14 days after stroke, vs vehicle, p<0.001, FIG. 1A
  paw placement score (recovery of paw placement function): almost complete recovery of paw placement function
Male Sprague Dawley rats [4]; after 5 days treatment, FIG. 1D
  persistence of recovery of function after termination of the treatment: at least 7 days
Male Sprague Dawley rats [4]; [5]
  days of treatment for a maximal treatment effect: 14 days
  days of treatment required for a treatment effect: At least 4 days
